# Laboratory results as given in publication PMC9820279 (International Journal of Molecular Sciences, 2022).
# Read-outs that look alike come from different tables or passages of the source.
# What was measured:
# [1] = system: HBMEC monolayer
# Experimental: The cell line HBMEC was used as a simplified in vitro model of the BBB endothelium. […] Endothelial cell cultures were maintained at 37 °C in a humid atmosphere enriched with 5% CO2. In our studies, HBMEC were used between passage 25 and 29. For experiments, HBMECs were seeded using a volume of 200 µL at a density of 8 × 10^4 cells/mL in rat tail collagen-I (100 µg/mL) coated 96-well plates (for viability assay) or 500 µL at a density of 1.6 × 10^5 cells/mL in rat tail collagen-I (100 µg/mL) coated semi-permeable membranes in transwell inserts (0.4 µm pore, Corning Costar Corp., USA; for BBB integrity and transport assays) for 12-well plates. The incubation timepoints were assay dependent.
# For the transendothelial transport assays, HBMEC were seeded on transwell inserts as described above and are schematically depicted in Figure 1a. After seeding, the media were changed every two days. Four days post-seeding, the HBMEC monolayer was formed, and the transport studies were performed. […] Vupper and Vlower is the upper and lower compartment volume (0.5 and 1.5 mL, respectively). The culture inserts were used for the subsequent integrity permeability studies.
# [2] = cited from earlier work
# [3] = parameters: method as in PMID 35782945, PMID 34869538, PMID 34209864, PMID 35498984, PMID 34923590; settings: previously studied by the group; cited from earlier work
# [4] = system: AChE; settings: previously studied by the group; cited from earlier work
# [5] = system: BChE; settings: previously studied by the group; cited from earlier work
# [6] = system: LOX; parameters: method as in PMID 35782945, PMID 34869538, PMID 34209864, PMID 35498984, PMID 34923590; settings: previously studied by the group; cited from earlier work
# [7] = matrix ASFE extract 24 µg/mL, 2 h incubation, n.d = not detected in lower compartment
# [8] = matrix ASFE extract 24 µg/mL, 4 h incubation, n.d = not detected in lower compartment
compound,measurement,setting,value
C[C@@H]1CCCC2=CC[C@@H]3[C@@H](C3(C)C)[C@]21C [(-)-Aristolene],Te % (SEM) 2 h,[1],39.7 (0.4) %
same,Te % (SEM) 4 h,[1],71.3 (1.6) %
same,Detection in basolateral compartment (brain side) of HBMEC-BBB model,[1]; PLE100 extract,detected in the basolateral compartment
same,Crossing of the PAMPA-BBB system,[2]; PLE100 extract compounds,could not cross
O=C1c2c(O)cc(O)cc2O[C@H](c2ccc(O)cc2)[C@H]1O [Aromadendrin],Detection / transport to lower compartment (brain side) of HBMEC-BBB model,[1]; ASFE extract,could reach the “brain side”
same,Te % (SEM) 2 h,[1]; [7],76.2 (0.8) %
same,Te % (SEM) 4 h,[1]; [8],78.7 (0.7) %
same,Detection in the lower well of the PAMPA-BBB model,[2]; ASFE extract compounds,not detected in the lower well
O=C1O[C@H]([C@@H](O)CO)C(O)=C1O [Ascorbic acid],RNS IC50,[3],1100.9 µg/mL
O=C(/C=C/c1ccc(O)c(O)c1)O[C@@H](C(=O)O)[C@@H](O)C(=O)O [Caftaric acid],Detection / transport to lower compartment (brain side) of HBMEC-BBB model,[1],could reach the “brain side”
same,Te % (SEM) 2 h,"[1]; human, 2 h, 24 µg/mL",46.3 (3.6) %
same,Te % (SEM) 4 h,"[1]; human, 4 h, 24 µg/mL",87.6 (3.5) %
same,Detection in the lower well of the PAMPA-BBB model,[2]; ASFE extract compounds,not detected in the lower well
O=c1oc2c(O)c(O)cc3c(=O)oc4c(O)c(O)cc1c4c23 [Ellagic acid],Detection / transport to lower compartment (brain side) of HBMEC-BBB model,[1],could reach the “brain side”
same,Te % (SEM) 2 h,"[1]; human, 2 h, 24 µg/mL",42.4 (1.6) %
same,Te % (SEM) 4 h,"[1]; human, 4 h, 24 µg/mL",85.5 (2.5) %
same,Detection in the lower well of the PAMPA-BBB model,[2]; ASFE extract compounds,not detected in the lower well
COc1cc(/C=C/C(=O)O)ccc1O [Ferulic acid],Detection / transport to lower compartment (brain side) of HBMEC-BBB model,[1]; ASFE extract,could reach the “brain side”
same,Te % (SEM) 4 h,[1]; [8],9.1 (0.3) %
same,Detection in the lower well of the PAMPA-BBB model,[2]; ASFE extract compounds,not detected in the lower well
COc1ccc2c3c1O[C@H]1C[C@@H](O)C=C[C@@]31CCN(C)C2 [Galantamine],AChE IC50,[4],0.40 µg/mL
same,BChE IC50,[5],2.36 µg/mL
CC(CC(=O)C[C@@H](C)[C@H]1C[C@H](O)[C@@]2(C)C3=C(C(=O)C[C@]12C)[C@@]1(C)CC[C@H](O)C(C)(C)[C@@H]1CC3)C(=O)O (stereo partly shown) [Ganolucidic acid B],Detection / transport to lower compartment (brain side) of HBMEC-BBB model,[1]; ASFE extract,could reach the “brain side”
same,Te % (SEM) 2 h,[1]; [7],28.4 (1.1) %
same,Te % (SEM) 4 h,[1]; [8],28.6 (1.5) %
same,Detection in the lower well of the PAMPA-BBB model,[2]; ASFE extract compounds,not detected in the lower well
O=c1c(O[C@@H]2O[C@H](CO)[C@@H](O)[C@H](O)[C@H]2O)c(-c2ccc(O)c(O)c2)oc2cc(O)cc(O)c12 [Isoquercitrin],Te % (SEM) 2 h,"[1]; human, 2 h, 30 µg/mL",6.0 (0.2) %
same,Te % (SEM) 4 h,"[1]; human, 4 h, 30 µg/mL",16.3 (1.3) %
same,Crossing of the in vitro PAMPA-BBB,[2]; PAMPA,not capable of crossing
C=C(C)[C@@H]1CC[C@]2(C)CC[C@]3(C)[C@H](CC[C@@H]4[C@@]5(C)CC[C@H](OC(C)=O)C(C)(C)[C@@H]5CC[C@]43C)[C@@H]12 [Lupeol acetate],Detection in basolateral compartment (brain side) of HBMEC-BBB model,[1]; OL-SS extract,not detected
same,Detection in the PAMPA-BBB model,[2]; OL-SS extract compounds,not detected
CC(C)=CCC/C(C)=C\CO [Nerol],Detection in basolateral compartment (brain side) of HBMEC-BBB model,[1]; PLE100 extract,detected in the basolateral compartment
same,Te % (SEM) 2 h,[1]; human,26.8 (0.2) %
same,Te % (SEM) 4 h,[1]; human,41.5 (3.1) %
same,Crossing of the PAMPA-BBB system,[2]; PLE100 extract compounds,could not cross
Oc1cc(O)c2c(c1)O[C@H](c1ccc(O)c(O)c1)[C@H](O)[C@H]2c1c(O)cc(O)c2c1O[C@H](c1ccc(O)c(O)c1)[C@H](O)C2 [Procyanidin B2],Detection / transport to lower compartment (brain side) of HBMEC-BBB model,[1]; ASFE extract,could reach the “brain side”
same,Te % (SEM) 2 h,[1]; [7],56.8 (0.0) %
same,Te % (SEM) 4 h,[1]; [8],61.9 (2.6) %
same,Detection in the lower well of the PAMPA-BBB model,[2]; PAMPA,not detected in the lower well
Oc1cccc(O)c1O [Pyrogallol],Detection / transport to lower compartment (brain side) of HBMEC-BBB model,[1],could reach the “brain side”
same,Te % (SEM) 2 h,"[1]; human, 2 h, 24 µg/mL",37.6 (2.6) %
same,Te % (SEM) 4 h,"[1]; human, 4 h, 24 µg/mL",80.5 (1.1) %
same,Detection in the lower well of the PAMPA-BBB model,[2]; ASFE extract compounds,not detected in the lower well
O=c1c(O)c(-c2ccc(O)c(O)c2)oc2cc(O)cc(O)c12 [Quercetin],LOX IC50,[6],125.7 µg/mL
COc1cc(/C=C/C(=O)O)cc(OC)c1O [Sinapic acid],Te % (SEM) 2 h,[1],35.6 (2.0)/n.d %
same,Te % (SEM) 4 h,[1],44.4 (3.2)/18.6 (0.5) %
same,Detection / transport to lower compartment (brain side) of HBMEC-BBB model,[1]; ASFE extract,could reach the “brain side”
same,Te % (SEM) 4 h,[1]; [8],44.4 (3.2)/18.6 (0.5) %
same,Detection in the lower well of the PAMPA-BBB model,[2]; ASFE extract compounds,not detected in the lower well
same,Crossing of the in vitro PAMPA-BBB,[2]; T33 extract compounds,not capable of crossing
CC(C)=CCC/C(C)=C/CC/C(C)=C/CC/C=C(\C)CC/C=C(\C)CCC=C(C)C [Squalene],Detection in basolateral compartment (brain side) of HBMEC-BBB model,[1]; PLE100 extract,detected in the basolateral compartment
same,Te % (SEM) 2 h,"[1]; matrix OL-SS extract 40 µg/mL, 2 h incubation, n.d = not detected in lower compartment",24.1 (1.4) %
same,Te % (SEM) 4 h,"[1]; matrix OL-SS extract 40 µg/mL, 4 h incubation, n.d = not detected in lower compartment",33.2 (0.9) %
same,Te % (SEM) 2 h,"[1]; matrix PLE100 extract 15 µg/mL, 2 h incubation, n.d = not detected in lower compartment",19.1 (1.4) %
same,Te % (SEM) 4 h,"[1]; matrix PLE100 extract 15 µg/mL, 4 h incubation, n.d = not detected in lower compartment",47.6 (1.5) %
same,Crossing of the PAMPA-BBB system,[2]; PLE100 extract compounds,could not cross
Oc1ccc(/C=C/c2cc(O)cc3c2[C@@H](c2cc(O)cc(O)c2)[C@H](c2ccc(O)cc2)O3)cc1 [e-viniferin],Detection / transport to lower compartment (brain side) of HBMEC-BBB model,[1]; ASFE extract,could reach the “brain side”
same,Te % (SEM) 2 h,[1]; [7],39.2 (2.2) %
same,Te % (SEM) 4 h,[1]; [8],45.9 (3.0) %
same,Detection in the lower well of the PAMPA-BBB model,[2]; ASFE extract compounds,not detected in the lower well
C[C@H]1[C@H](C)CC[C@]2(CO)CC[C@]3(C)C(=CC[C@@H]4[C@@]5(C)CC[C@H](O)C(C)(C)[C@@H]5CC[C@]43C)[C@H]12 [uvaol],Detection in basolateral compartment (brain side) of HBMEC-BBB model,[1]; OL-SS extract,detected
same,Detection in the PAMPA-BBB model,[2]; OL-SS extract compounds,detected in the acceptor well
C[C@H]1[C@H](C)CC[C@]2(C)CC[C@]3(C)C(=CC[C@@H]4[C@@]5(C)CC[C@H](O)C(C)(C)[C@@H]5CC[C@]43C)[C@H]12 [α-Amyrin],Detection in basolateral compartment (brain side) of HBMEC-BBB model,[1]; OL-SS extract,not detected
same,Detection in the PAMPA-BBB model,[2]; OL-SS extract compounds,not detected
CC1(C)CC[C@]2(C)CC[C@]3(C)C(=CC[C@@H]4[C@@]5(C)CC[C@H](O)C(C)(C)[C@@H]5CC[C@]43C)[C@@H]2C1 [β-Amyrin],Detection in basolateral compartment (brain side) of HBMEC-BBB model,[1]; OL-SS extract,not detected
same,Detection in basolateral compartment (brain side) of HBMEC-BBB model,[1]; PLE100 extract,not detected
same,Crossing of the PAMPA-BBB system,[2]; PAMPA,not detected
same,Detection in the PAMPA-BBB model,[2]; PAMPA,not detected
γ-silenene,Te % (SEM) 2 h,[1],52.8 (3.8) %
same,Te % (SEM) 4 h,[1],53.8 (2.8) %
